# According to patent publication US20230049952A1, “METHODS AND COMPOUNDS FOR RESTORING MUTANT P53 FUNCTION” (PMV Pharmaceuticals, Inc., priority 2020, published 2023):
# System: p53 signaling pathway in MT373 tumors
# Experiment: MT373 syngeneic sarcoma model: mouse p53 signaling pathway profiling panel
# Type: in vivo
smiles,measurement,setting,value
"CCn1c(C#CCNc2ccccc2)cc2cc(CNC3CCN(C)CC3)ccc21 [Compound 1, 1-Anilino-3-{1-ethyl-5-[(1-methyl-4-piperidylamino)methyl]-1H-indol-2-yl}-2-propyne]",Sirt1 fold increase or percent reduction vs vehicle control,"150 mg/kg BIDx1, 48 h",13.36 fold or %
same,Stat1 fold increase or percent reduction vs vehicle control,"150 mg/kg BIDx1, 48 h",1.72 fold or %
same,Tnf fold increase or percent reduction vs vehicle control,"150 mg/kg BIDx1, 48 h",27.80 fold or %
same,Traf1 fold increase or percent reduction vs vehicle control,"150 mg/kg BIDx1, 48 h",1.04 fold or %
same,Trp53bp2 fold increase or percent reduction vs vehicle control,"150 mg/kg BIDx1, 48 h",8.14 fold or %
same,Trp53 fold increase or percent reduction vs vehicle control,"150 mg/kg BIDx1, 48 h",22.40 fold or %
same,Apex1 fold increase or percent reduction vs vehicle control,"150 mg/kg BIDx1, 72 h",15.68 fold or %
same,Atm fold increase or percent reduction vs vehicle control,"150 mg/kg BIDx1, 72 h",18.10 fold or %
same,Atr fold increase or percent reduction vs vehicle control,"150 mg/kg BIDx1, 72 h",1.15 fold or %
same,Bag1 fold increase or percent reduction vs vehicle control,"150 mg/kg BIDx1, 72 h",21.87 fold or %
same,Bax fold increase or percent reduction vs vehicle control,"150 mg/kg BIDx1, 72 h",21.38 fold or %
same,Bbc3 fold increase or percent reduction vs vehicle control,"150 mg/kg BIDx1, 72 h",1.10 fold or %
same,Bcl2 fold increase or percent reduction vs vehicle control,"150 mg/kg BIDx1, 72 h",6.74 fold or %
same,Bid fold increase or percent reduction vs vehicle control,"150 mg/kg BIDx1, 72 h",2.75 fold or %
same,Birc5 fold increase or percent reduction vs vehicle control,"150 mg/kg BIDx1, 72 h",24.85 fold or %
same,Brca1 fold increase or percent reduction vs vehicle control,"150 mg/kg BIDx1, 72 h",17.44 fold or %
same,Brca2 fold increase or percent reduction vs vehicle control,"150 mg/kg BIDx1, 72 h",19.53 fold or %
same,Btg2 fold increase or percent reduction vs vehicle control,"150 mg/kg BIDx1, 72 h",23.10 fold or %
same,Casp2 fold increase or percent reduction vs vehicle control,"150 mg/kg BIDx1, 72 h",8.98 fold or %
same,Ccnb1 fold increase or percent reduction vs vehicle control,"150 mg/kg BIDx1, 72 h",18.77 fold or %
same,Ccne1 fold increase or percent reduction vs vehicle control,"150 mg/kg BIDx1, 72 h",1.04 fold or %
same,Ccng1 fold increase or percent reduction vs vehicle control,"150 mg/kg BIDx1, 72 h",11.26 fold or %
same,Ccnh fold increase or percent reduction vs vehicle control,"150 mg/kg BIDx1, 72 h",5.78 fold or %
same,Cdc25a fold increase or percent reduction vs vehicle control,"150 mg/kg BIDx1, 72 h",1.65 fold or %
same,Cdk1 fold increase or percent reduction vs vehicle control,"150 mg/kg BIDx1, 72 h",22.76 fold or %
same,Cdk4 fold increase or percent reduction vs vehicle control,"150 mg/kg BIDx1, 72 h",19.73 fold or %
same,Cdkn1a fold increase or percent reduction vs vehicle control,"150 mg/kg BIDx1, 72 h",13.49 fold or %
same,Cdkn2a fold increase or percent reduction vs vehicle control,"150 mg/kg BIDx1, 72 h",20.75 fold or %
same,Chek1 fold increase or percent reduction vs vehicle control,"150 mg/kg BIDx1, 72 h",17.70 fold or %
same,Cradd fold increase or percent reduction vs vehicle control,"150 mg/kg BIDx1, 72 h",16.72 fold or %
same,Cul9 fold increase or percent reduction vs vehicle control,"150 mg/kg BIDx1, 72 h",1.54 fold or %
same,Dapk1 fold increase or percent reduction vs vehicle control,"150 mg/kg BIDx1, 72 h",1.39 fold or %
same,Dnmt1 fold increase or percent reduction vs vehicle control,"150 mg/kg BIDx1, 72 h",1.03 fold or %
same,E2f1 fold increase or percent reduction vs vehicle control,"150 mg/kg BIDx1, 72 h",1.10 fold or %
same,E2f3 fold increase or percent reduction vs vehicle control,"150 mg/kg BIDx1, 72 h",17.09 fold or %
same,Egfr fold increase or percent reduction vs vehicle control,"150 mg/kg BIDx1, 72 h",13.15 fold or %
same,Egr1 fold increase or percent reduction vs vehicle control,"150 mg/kg BIDx1, 72 h",38.21 fold or %
same,Ep300 fold increase or percent reduction vs vehicle control,"150 mg/kg BIDx1, 72 h",2.74 fold or %
same,Ercc1 fold increase or percent reduction vs vehicle control,"150 mg/kg BIDx1, 72 h",20.27 fold or %
same,Esr1 fold increase or percent reduction vs vehicle control,"150 mg/kg BIDx1, 72 h",1.82 fold or %
same,Fadd fold increase or percent reduction vs vehicle control,"150 mg/kg BIDx1, 72 h",1.18 fold or %
same,Fas fold increase or percent reduction vs vehicle control,"150 mg/kg BIDx1, 72 h",12.10 fold or %
same,Fasl fold increase or percent reduction vs vehicle control,"150 mg/kg BIDx1, 72 h",1.29 fold or %
same,Foxo3 fold increase or percent reduction vs vehicle control,"150 mg/kg BIDx1, 72 h",1.08 fold or %
same,Gadd45a fold increase or percent reduction vs vehicle control,"150 mg/kg BIDx1, 72 h",12.31 fold or %
same,Hif1a fold increase or percent reduction vs vehicle control,"150 mg/kg BIDx1, 72 h",1.18 fold or %
same,Il6 fold increase or percent reduction vs vehicle control,"150 mg/kg BIDx1, 72 h",61.14 fold or %
same,Jun fold increase or percent reduction vs vehicle control,"150 mg/kg BIDx1, 72 h",20.41 fold or %
same,Kras fold increase or percent reduction vs vehicle control,"150 mg/kg BIDx1, 72 h",1.08 fold or %
same,Lig4 fold increase or percent reduction vs vehicle control,"150 mg/kg BIDx1, 72 h",1.27 fold or %
same,Mdm2 fold increase or percent reduction vs vehicle control,"150 mg/kg BIDx1, 72 h",1.10 fold or %
same,Mdm4 fold increase or percent reduction vs vehicle control,"150 mg/kg BIDx1, 72 h",13.89 fold or %
same,Mel1 fold increase or percent reduction vs vehicle control,"150 mg/kg BIDx1, 72 h",17.68 fold or %
same,Mlh1 fold increase or percent reduction vs vehicle control,"150 mg/kg BIDx1, 72 h",1.52 fold or %
same,Msh2 fold increase or percent reduction vs vehicle control,"150 mg/kg BIDx1, 72 h",4.98 fold or %
same,Myod1 fold increase or percent reduction vs vehicle control,"150 mg/kg BIDx1, 72 h",3.03 fold or %
same,Nf1 fold increase or percent reduction vs vehicle control,"150 mg/kg BIDx1, 72 h",12.40 fold or %
same,Nfkb1 fold increase or percent reduction vs vehicle control,"150 mg/kg BIDx1, 72 h",1.15 fold or %
same,Pcna fold increase or percent reduction vs vehicle control,"150 mg/kg BIDx1, 72 h",21.44 fold or %
same,Pmaip1 fold increase or percent reduction vs vehicle control,"150 mg/kg BIDx1, 72 h",1.41 fold or %
same,Ppm1d fold increase or percent reduction vs vehicle control,"150 mg/kg BIDx1, 72 h",0.20 fold or %
same,Prkca fold increase or percent reduction vs vehicle control,"150 mg/kg BIDx1, 72 h",4.15 fold or %
same,Pten fold increase or percent reduction vs vehicle control,"150 mg/kg BIDx1, 72 h",1.14 fold or %
same,Pttg1 fold increase or percent reduction vs vehicle control,"150 mg/kg BIDx1, 72 h",1.19 fold or %
same,Rb1 fold increase or percent reduction vs vehicle control,"150 mg/kg BIDx1, 72 h",3.47 fold or %
same,Rela fold increase or percent reduction vs vehicle control,"150 mg/kg BIDx1, 72 h",2.50 fold or %
same,Rprm fold increase or percent reduction vs vehicle control,"150 mg/kg BIDx1, 72 h",1.51 fold or %
same,Serpinb5 fold increase or percent reduction vs vehicle control,"150 mg/kg BIDx1, 72 h",1.00 fold or %
same,Sesn2 fold increase or percent reduction vs vehicle control,"150 mg/kg BIDx1, 72 h",1.31 fold or %
same,Sfn fold increase or percent reduction vs vehicle control,"150 mg/kg BIDx1, 72 h",7.33 fold or %
same,Sirt1 fold increase or percent reduction vs vehicle control,"150 mg/kg BIDx1, 72 h",1.08 fold or %
same,Stat1 fold increase or percent reduction vs vehicle control,"150 mg/kg BIDx1, 72 h",1.78 fold or %
same,Tnf fold increase or percent reduction vs vehicle control,"150 mg/kg BIDx1, 72 h",1.15 fold or %
same,Traf1 fold increase or percent reduction vs vehicle control,"150 mg/kg BIDx1, 72 h",1.41 fold or %
same,Trp53bp2 fold increase or percent reduction vs vehicle control,"150 mg/kg BIDx1, 72 h",1.07 fold or %
same,Trp53 fold increase or percent reduction vs vehicle control,"150 mg/kg BIDx1, 72 h",1.21 fold or %
same,Bbc3 mRNA increase,"150 mg/kg BID×1, 24 h",2.27 fold
same,Birc5 mRNA decrease,"150 mg/kg BID×1, 24 h",53.57%
same,Ccng1 mRNA increase,"150 mg/kg BID×1, 24 h",6.84 fold
same,Cdc25c mRNA decrease,"150 mg/kg BID×1, 24 h",41.75%
same,Cdk1 mRNA decrease,"150 mg/kg BID×1, 24 h",64.58%
same,Cdkn1a mRNA increase,"150 mg/kg BID×1, 24 h",10.93 fold
same,Chek1 mRNA decrease,"150 mg/kg BID×1, 24 h",58.77%
same,Egfr mRNA change,"150 mg/kg BID×1, 24 h",47.37%
